# According to article PMC2886105, “Assay Strategies for the Discovery and Validation of Therapeutics Targeting Brugia pahangi Hsp90” (PLoS Neglected Tropical Diseases, 2010):
# Where two headings read alike, the source gives them in different places.
# Key:
# Brugia Hsp90 = target: T1, Brugia Hsp90 (Brugia pahangi, UniProt O61998); assay: biochemical; type: binding; conditions: for dose-dependent reduction of the FP signal: Figure 3B, Brugia extract; for IC50: 6 nM cy3B-GA, 2 µg/well Brugia extract, 4°C, 24 h
# T1 construct: from tissue; host or cells: whole adult B. pahangi worms from infected gerbils, ground and re-suspended in HFB assay buffer
# Protocol: FP measurements were performed using black 96-well microtiter plates (Corning #3650), where both the excitation and the emission occurred from the top of the well, on an Analyst GT plate reader (Molecular Devices, Sunnyvale, CA). An integration time of 100 ms was used, and Z height was set at 3 mm (middle). The excitation polarization was set at static, and the emission polarization was set at dynamic. […] All FP values were expressed in millipolarization (mP) units. The mP values were calculated using the equation mP = 1000× [(IS – ISB) – (IP – IPB)]/[(IS – ISB) + (IP – IPB)], where IS is the parallel emission intensity measurement, IP is the perpendicular emission intensity sample measurement, and ISB and […] are the corresponding measurements for background (buffer). Total fluorescence was determined as 2×IP+IS.
# For the competition studies, FP assays were performed as previously reported. […] Drugs were added to triplicate wells. […] Plates were incubated on a shaker at 4°C, and polarization values measured at 8 to 24 h.
# (§1) Figure 3 Brugia assay validation. […] Ligand binding was plotted against the log10 inhibitor concentration, and EC50 values were calculated using a nonlinear least-square curve-fitting program in Prism 4.0. Points, mean; bars, s.d. […] Graphs show mean and SD of Mf output over a three-day period from six female worms per group.
# adult female B. pahangi [1] = assay: Mf output by adult female B. pahangi cultured in vitro with drug; set-up: species or system Brugia pahangi; conditions: GA at 1 µM; PU-H71 and PU-DZ8 at 5 and 10 µM; three-day period
# Protocol: (§2) Mf output by individual female worms was assessed at two time points and adult worms were examined microscopically and their condition noted. Results are expressed as mean Mf output over a three-day period ± SD. Statistical significance between groups was calculated using the Mann Whitney test with P values <0.05 being considered significant.
# as §1
# B. pahangi Mf = assay: Mortality of purified B. pahangi Mf incubated in drug; set-up: species or system Brugia pahangi; conditions: day 7
# Protocol: as §2
# In separate experiments, Mf were purified from the peritoneal cavity of infected animals and incubated alone in each of the drugs.
# adult female B. pahangi [2] = system: adult female B. pahangi; set-up: method as in PMID 15862576; conditions: adult worms ref 14; cited from earlier work
# adult B. pahangi = assay: Condition and activity of adult B. pahangi worms in vitro; set-up: species or system Brugia pahangi
# Protocol: Mf output by individual female worms was assessed at two time points and adult worms were examined microscopically and their condition noted. Results are expressed as mean Mf output over a three-day period ± SD.
compound,measurement,setting,value
Nc1ncnc2c1ncn2[C@@H]1O[C@H](COP(=O)(O)OP(=O)(O)O)[C@@H](O)[C@H]1O [ADP],dose-dependent reduction of the FP signal,Brugia Hsp90,dose-dependent reduction of the FP signal
CO[C@@H]1[C@@H](OC(N)=O)[C@@H](O)[C@H](Oc2ccc3c(O)c(NC(=O)c4ccc(O)c(CC=C(C)C)c4)c(=O)oc3c2C)OC1(C)C [novobiocin],EC50,Brugia Hsp90,> 10000 nM
ivermectin,dose-dependent reduction of the FP signal,Brugia Hsp90,no such effect
C[C@@H]1C[C@H]2O[C@@H]2/C=C\C=C\C(=O)Cc2c(Cl)c(O)cc(O)c2C(=O)O1 [radicicol],EC50,Brugia Hsp90,75.4 nM
"COC1=C2C[C@@H](C)C[C@H](OC)[C@H](O)[C@@H](C)/C=C(\C)[C@H](OC(N)=O)[C@@H](OC)/C=C\C=C(/C)C(=O)NC(=CC1=O)C2=O [GA, geldanamycin]",effect on Mf release,adult female B. pahangi [1],profound effect
same,Mf dead,B. pahangi Mf; 1.0 µM,all dead
same,onset of effect on Mf output,adult female B. pahangi [2],≤ 24 h
C#CCCCn1c(Cc2cc(OC)c(OC)c(OC)c2Cl)nc2c(N)nc(F)nc21 [PU-24FCl],Selectivity ratio (Brugia IC50 / SKBr3 IC50),Brugia Hsp90,2
same,IC50,"Brugia Hsp90; Brugia IC50, Figure 4C",1410 ± 10 nM
CC(C)NCCCn1c(Sc2cc3c(cc2I)OCC3)nc2c(N)ncnc21 [PU-WS10],Selectivity ratio (Brugia IC50 / SKBr3 IC50),Brugia Hsp90; Brugia vs human SKBr3 Hsp90 species,9
CC(C)NCCCn1c(Sc2cc3c(cc2I)OCO3)nc2c(N)ncnc21 [PU-H71],IC50,"Brugia Hsp90; Brugia IC50, Figure 4C",80.8 ± 0.5 nM
same,IC50,"Brugia Hsp90; IC50, inhibition of the binding of cy3B-GA to Brugia Hsp90, values in text for Figure 3C",80 nM
same,effect on Mf release,adult female B. pahangi [1],profound effect
same,activity of adult worms,adult B. pahangi; 5.0 µM,markedly less active
same,activity of adult worms,adult B. pahangi; 10 µM,markedly less active
same,concentration of drug required to kill adult Brugia,adult B. pahangi; in vitro,2.5 µM
same,Mf dead,B. pahangi Mf; 5.0 µM,approximately 80%
same,Mf dead,B. pahangi Mf; 10 µM,100%
